Source: US5661136A, “2-halo-2'-fluoro ARA adenosines as antinoplastic agents” (priority 1994, dated 1997)
Read-outs that look alike come from different tables or passages of the source.

What was measured:
L1210 = assay: Cytotoxicity, inhibition of cell proliferation to 50% of untreated controls; format: cell-based; conditions: Mus musculus; L1210 murine leukemia line; read-out: Cytotoxicity as IC50, L1210
Source text: (§1) In contrast to the previously reported 2'-substituted 9-β-D-arabinofuranosyl-2-haloadenines, the 2'-fluoro compounds were quite cytotoxic to three human cell lines, H.Ep.-2, CCRF-CEM, and K562, and the murine lukemia line, L1210.
(§2) Obviously, to be useful as anticancer agents, the nucleosides of the present invention must show the ability to kill cells in vitro. […] One cell line (L1210) is a murine lukemia, whereas the other three are human neoplasms. […] Many people today emphasize the importance of toxicity to human cell lines.

H.Ep.-2 = assay: as above; format: cell-based, human
Source text: as §1, §2

CCRF-CEM = assay: as above; format: cell-based, human; conditions: read-out: Cytotoxicity as IC50, CCRF-CEM
Source text: as §1, §2

[1] = biological target: E. coli purine nucleoside phosphorylase (Escherichia coli, UniProt P0ABP8); assay: Phosphorolysis of nucleosides by purine nucleoside phosphorylase; format: biochemical; conditions: 0.5 mM nucleoside, 50 mM pH 8.0 phosphate buffer, HPLC, incubation 30-240 min, read-out: % Cleavage
Source text: Subsequently, the phosphorolysis of these compounds were compared by E. coli purine nucleoside phosphorylase. The […] and 2'-deoxyribonucleosides are rapidly cleaved by this enzyme, whereas the […] nucleosides substituted at 2' by Cl, N3, or NH2 are almost completely resistant. The 2'-fluoro compounds are less resistant to cleavage, being cleaved at roughly one-third the rate of the […] and 2'-deoxynucleosides. This reduction in cleavage rate may be acceptable for pharmaceutical purposes as phosphorylation in mammalian cells is quite rapid.
More specifically, an enzyme reaction mixture consisting of 0.5 mM nucleoside substrate, 50 mM pH 8.0 phosphate buffer and purine nucleoside phosphorylase in a final volume of 1.0 mL was allowed to incubate for 30, 60, 120, 180 and 240 minutes, and the amounts of nucleoside and substrate remaining were determined by HPLC.

K562 = assay: Cytotoxicity, inhibition of cell proliferation to 50% of untreated controls; format: cell-based, human
Source text: as §1, §2

P388 leukemia [2] = assay: In vivo activity vs ip P388 leukemia, ip administration; parameters: species or system CD2F1 mice
Source text: This, coupled with the lower toxicity of the cleavage product, 2-chloroadenine, relative to 2-fluoroadenine, make this compound a preferred compound of the present invention. The following Table III provides a summary of the in vivo activity of the 9-(2-fluoro-2-deoxy-β-D-arabinofuranosyl)-2-haloadenines vs P388 leukemia cell line in which CD2F1 mice were implanted ip with 10^6 P388 leukemia cells on day 0 in accordance with the protocol of Waud et al [Cancer Res. 50:3232 (1990)].
In the above table, the optimal dose refers to mg/kg/dose (≤LD50); ILS refers to the increase in life span; and the log change refers to the change in viable tumor cell population at the end of therapy compared to that at the start of therapy, based on the median day of death among the animals that died. The data in this table is presented in accordance with the National Cancer Institute activity criteria for drug testing in which an ILS of 20-74% is considered moderate activity, and an ILS of 75% or more is considered good activity.

[3] = relative to 9-β-D-arabinofuranosyl-2-fluoroadenine; cited from earlier work
K562 cells = conditions: cited from earlier work
P388 leukemia [4] = assay: Antitumor activity against ip P388 leukemia, oral administration; format: in vivo, mice; conditions: oral 67 mg/kg/dose
Protocol: In a similar test, compound 3d was administered orally and evaluated for antitumor activity against ip P388 leukemia cells. As the data in Table III indicates, the optimal regimen for the compound, administered ip, is in divided doses five on days 1, 5, and 9, a similar schedule was selected for the oral administration of this compound. In this set of experiments, an oral dosage of 67 mg/kg/dose, given q 6 h×4 on days 1, 5, and 9, effected a reduction in tumor burden of 1.7 log10 units, a figure which is approximately 2.5 log10 units less that that obtained in studies using ip drug administration.

[5] = HEp-2, H.Ep.-2 human cell line, read-out: Cytotoxicity as IC50, H.Ep.-2
[6] = K562 human cell line, read-out: Cytotoxicity as IC50, K562
[7] = 30 mg/kg/dose ip, q 3 h × 8 (Days 1, 5, 9)
[8] = 50 mg/kg/dose ip, q 3 h × 8 (Days 1, 5, 9)
[9] = 20 mg/kg/dose ip, q 3 h × 8 (Days 1, 5, 9)
[10] = 25 mg/kg/dose ip, q 3 h × 8 (Days 1, 5, 9)

E. coli purine nucleoside phosphorylase, sequence (P0ABP8 2-239): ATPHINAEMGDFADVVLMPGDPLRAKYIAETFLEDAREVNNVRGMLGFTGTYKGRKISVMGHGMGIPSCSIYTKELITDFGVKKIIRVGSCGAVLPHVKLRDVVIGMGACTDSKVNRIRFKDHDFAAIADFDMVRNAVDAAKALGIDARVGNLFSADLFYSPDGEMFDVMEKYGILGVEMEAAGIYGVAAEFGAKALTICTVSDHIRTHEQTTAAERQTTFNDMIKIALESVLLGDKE

| Structure (SMILES) | IC50 (L1210) | IC50 (H.Ep.-2; [5]) | IC50 (CCRF-CEM; CCRF-CEM human cell line) | metabolised at 500 µM [1] | IC50 (K562; [6]) | Log10 change in viable tumor cell population (P388 leukemia [2]; 200 mg/kg/dose ip, qd 1-5) | Median % ILS (dying mice only) (P388 leukemia [2]; 200 mg/kg/dose ip, qd 1-5) | Tumor-free Survivors (P388 leukemia [2]; 200 mg/kg/dose ip, qd 1-5) | Log10 change in viable tumor cell population (P388 leukemia [2]; [10]) | Median % ILS (dying mice only) (P388 leukemia [2]; [10]) | Tumor-free Survivors (P388 leukemia [2]; [10]) | Log10 change in viable tumor cell population (P388 leukemia [2]; 100 mg/kg/dose ip, qd 1-5) | Median % ILS (dying mice only) (P388 leukemia [2]; 100 mg/kg/dose ip, qd 1-5) | Tumor-free Survivors (P388 leukemia [2]; 100 mg/kg/dose ip, qd 1-5) | further results |
| --- | --- | --- | --- | --- | --- | --- | --- | --- | --- | --- | --- | --- | --- | --- | --- |
| Nc1nc(Cl)nc2c1ncn2[C@@H]1O[C@H](CO)[C@@H](O)[C@@H]1O [Y = Cl, X = OH] | < 3000 nM | 3000 nM | 10000 nM | – | – | – | – | – | – | – | – | – | – | – | – |
| Nc1nc(F)nc2c1ncn2[C@H]1C[C@H](O)[C@@H](CO)O1 [Y = F, X = H, 2-fluoro-2'-deoxyadenosine] | 900 nM | 200 nM | 200 nM | > 99% | – | – | – | – | – | – | – | – | – | – | – |
| Nc1nc(F)nc2c1ncn2[C@@H]1O[C@H](CO)[C@@H](O)[C@@H]1O [Y = F, X = OH, 2-fluoro-9-β-D-arabinofuranosyladenine, reference compound] | – | – | – | 99% | – | – | – | – | – | – | – | – | – | – | IC50 (H.Ep.-2; Homo sapiens, HEp-2, read-out: Cytotoxicity as IC50, H.Ep.-2): 9000 nM; IC50 (K562; Homo sapiens, K562, read-out: Cytotoxicity as IC50, K562): 150 nM; IC50 (CCRF-CEM; Homo sapiens, CCRF-CEM): 400 nM |
| Nc1nc(Br)nc2c1ncn2[C@@H]1O[C@H](CO)[C@@H](O)[C@@H]1F [compound 3b, 2-Bromo-9-(2-deoxy-2-fluoro-β-D-arabinofuranosyl)-9H-purin-6-amine] | 260 nM | 220 nM | 20 nM | 45% | 50 nM | +0.1 | +33% | 0/6 | – | – | – | – | – | – | Log10 change in viable tumor cell population (P388 leukemia [2]; [7]): -1.0; Median % ILS (dying mice only) (P388 leukemia [2]; [7]): +100%; Tumor-free Survivors (P388 leukemia [2]; [7]): 0/6; Log10 change in viable tumor cell population (P388 leukemia [2]; [8]): +1.6; Median % ILS (dying mice only) (P388 leukemia [2]; [8]): +41%; Tumor-free Survivors (P388 leukemia [2]; [8]): 0/6 |
| Nc1nc(Cl)nc2c1ncn2[C@@H]1O[C@H](CO)[C@@H](O)[C@@H]1F [compound 3d, 2-Chloro-9-(2-deoxy-2-fluoro-B-D-arabinofuranosyl)-2,0 9H-purin-6-amine] | 230 nM | 12 nM | 50 nM | 39% | 3 nM | -1.6 | +59% | 0/3 | -2.8 | +118% | 0/5 | -0.3 | +38% | 0/5 | solubility (in words) [3]: greater solubility; inhibition of DNA synthesis (K562 cells): inhibits DNA synthesis; reduction in tumor burden (P388 leukemia [4]; q 6 h×4 on days 1, 5, and 9): 1.7 log10 units; reduction in tumor burden, shortfall versus ip drug administration (P388 leukemia [4]; q 6 h×4 on days 1, 5, and 9, compared with ip): approximately 2.5 log10 units; Log10 change in viable tumor cell population (P388 leukemia [2]; [9]): -6.6; Median % ILS (dying mice only) (P388 leukemia [2]; [9]): +220%; Tumor-free Survivors (P388 leukemia [2]; [9]): 1/6 |
| Nc1nc(F)nc2c1ncn2[C@@H]1O[C@H](CO)[C@@H](O)[C@@H]1F [compound 3g, 2-Fluoro-9-(2-deoxy-2-fluoro-β-D-arabinofuranosyl)-9H-purin-6-amine] | 380 nM | 340 nM | 140 nM | 10% | 300 nM | – | – | – | -0.1 | +81% | 0/6 | -1.8 | +63% | 0/3 | – |
